Reference: patent US5444082A, “3,9-disubstituted-spiro(5.5)undecanes active on the cardiovascular system, process for their preparation and pharmaceutical composition containing same” (Sigma-Tau Industrie Farmaceutiche Riunite S.p.A., priority 1992, dated 1995)
One block for each compound: values may come before it.

Columns and labels:
[1] = target: T1, Na^+,K^+ -ATPase (Homo sapiens, UniProt P05023); test: displacement of the specific 3H-ouabain binding from the purified Na+,K+-ATPase receptor; conditions: read-out: Binding ^3 H-Ouab. Displacement log. IC50 (converted)
T1 construct: receptor purified according to Jorgensen (Jorgensen P., BBA, 1974,356, 36); from tissue
Text: (§1) To test the affinity for the receptor site of the Na^+,K^+ -ATPase and the agonist or antagonist activity on the enzyme, the following tests are used: a) displacement of the specific 3-Houabain binding from the Na^+,K^+ -ATPase receptor purified according to Jorgensen (Jorgensen P., BBA, 1974,356, 36) and Erdmann (L. Brown and E. Erdmann., Arzneim. Forsh., 1984, 34 (II), 1314); b) inhibition of the activity of the purified Na^+,K^+ -ATPase measured as % of hydrolysis of ^32 P-ATP in presence and in absence of the tested compound (F. Noel and Godfraind., Biochem. Pharmacol., 1984, 33, 47).

[2] = target: T1, Na^+,K^+ -ATPase; test: inhibition of the activity of the purified Na+,K+-ATPase, measured as % of hydrolysis of 32P-ATP; type: biochemical; conditions: read-out: Inhibitory Activity log IC50 (converted)
Text: as §1

- IC50 [1]: 7.94 µM
- IC50 [2]: 50.1 µM
SMILES: c1cc(CC2CCC3(CCC(COCCN4CCCC4)CC3)CC2)co1 (stereo not shown) [Comp. I-j, 9-(2-(N-Pyrrolidinyl)ethoxy)methyl-3-(3-furyl)methyl-spiro[5.5]undecane]

SMILES: NC(CO)COC1CCC2(CCC(CCc3ccoc3)CC2)CC1 (stereo not shown) [Comp. I-u, 9-(2-Amino-3-hydroxypropoxy)-3-(2-(3-furyl)ethyl)-spiro[5.5]undecane]
- IC50 [1]: 50.1 µM
- IC50 [2]: 50.1 µM

SMILES: c1cc(CC2CCC3(CCC(COCCCN4CCCC4)CC3)CC2)co1 (stereo not shown) [Comp. I-r, 9-(3-(N-Pyrrolidinyl)propoxy)methyl-3-(3-furyl)-methyl-spiro[5.5]undecane]
- IC50 [1]: 31.6 µM
- IC50 [2]: 12.6 µM

SMILES: c1cncc(CCC2CCC3(CC2)CCC(OCCN2CCCC2)CC3)c1 (stereo not shown) [Comp. I-h, 9-(2-(N-Pyrrolidinyl)ethoxy)-3-(2-(3-pyridyl)ethyl)-spiro[5.5]undecane]
- IC50 [1]: 25.1 µM
- IC50 [2]: 100 µM

SMILES: O=C1C=C(CCC2CCC3(CC2)CCC(OCCN2CCCC2)CC3)CO1 (stereo not shown) [Comp. I-bh, 9-(2-(N-Pyrrolidinyl)ethoxy)-3-(2-(2-oxo-[5H]-4-furyl)-ethyl)-spiro[5.5]undecane]
- IC50 [1]: 63.1 µM
- IC50 [2]: 100 µM

SMILES: c1cc(CC2CCC3(CCC(CSCCN4CCCC4)CC3)CC2)co1 (stereo not shown) [Comp. I-bf, 9-(2-(N-Pyrrolidinyl)ethyl-thiomethyl)-3-(3-furyl)methyl-spiro[5.5]undecane]
- IC50 [1]: 39.8 µM
- IC50 [2]: 100 µM

SMILES: OC1(CCc2ccoc2)CCC2(CCC(OCCN3CCCC3)CC2)CC1 (stereo not shown) [Comp. I-x, 9.(2-(N-pyrrolidinyl)ethoxy)-3-(2-(3-furyl)ethyl)-3-hydroxy-spiro[5.5]undecane]
- IC50 [1]: 100 µM
- IC50 [2]: 100 µM

SMILES: OC1(Cc2ccoc2)CCC2(CCC(COCCN3CCCC3)CC2)CC1 (stereo not shown) [Comp. I-ab, 9-(2-(N-Pyrrolidinyl)ethoxy)methyl-3-(3-furyl)meth-yl-3-hydroxy-spiro[5.5]undecane]
- IC50 [1]: 15.8 µM
- IC50 [2]: 15.8 µM

- IC50 [1]: 10 µM
- IC50 [2]: 15.8 µM
SMILES: NCCSCC1CCC2(CC1)CCC(Cc1ccoc1)CC2 (stereo not shown) [Comp. 1-be, 9-(2-Aminoethylthiomethyl)-3-(3-furyl)methyl-spiro[5.5]undecane]

SMILES: N=C(N)NN=CC1CCC2(CCC(O)CC2)CC1 (stereo not shown) [Comp. I-az, 9-Hydroxy-3-guanidinoiminomethyl-spirol[5.5]undecane]
- IC50 [1]: 15.8 µM
- IC50 [2]: 63.1 µM

SMILES: C1CCN(CCOC2CCC3(CCC(CCC4CCOC4)CC3)CC2)C1 (racemic) [Comp. 1-i, (RS)-9-(2-(N-Pyrrolidinyl)ethoxy)-3-(2-(3-(RS)-tetra-hydrofuryl)ethyl)-spiro[5.5]undecane]
- IC50 [1]: 100 µM
- IC50 [2]: 100 µM

SMILES: c1cc(CCC2CCC3(CC2)CCC(OCCN2CCCC2)CC3)co1 (stereo not shown) [Comp. I-g, 9-(2-(N-Pyrrolidinyl)ethoxy)-3-(2-(3-furyl)ethyl)-spiro[5.5]undecane]
- IC50 [1]: 12.6 µM
- IC50 [2]: 15.8 µM

SMILES: c1cc(CCC2CCC3(CC2)CCC(OCCCN2CCCC2)CC3)co1 (stereo not shown) [Comp. I-m]
- IC50 [1]: 31.6 µM
- IC50 [2]: 50.1 µM

SMILES: O=C1OCC=C1CCC1CCC2(CC1)CCC(OCCN1CCCC1)CC2 (stereo not shown) [Comp. 1-bg, 9-(2-(N-pyrrolidinyl)ethoxy)-3-(2-(2-oxo-[5H]-3-furyl)ethyl)-spiro[5.5]undecane]
- IC50 [1]: 100 µM
- IC50 [2]: 100 µM

SMILES: N=C(N)NN=C1CCC2(CC1)CCC(CO)CC2 (stereo not shown) [Comp. I-ay, 9-Hydroxymethyl-3-guanidinoimino-spiro[5.5]undecane]
- IC50 [1]: 25.1 µM
- IC50 [2]: 100 µM

SMILES: C(=CC1CCC2(CC1)CCC(OCCN1CCCC1)CC2)c1ccoc1 (mixture of isomers) [Comp. I-a, (EZ)-9-(2(N-Pyrrolidinyl)ethoxy)-3-(2-(3-furyl)vinyl)-spiro[5.5]undecane]
- IC50 [1]: 79.4 µM
- IC50 [2]: 25.1 µM

SMILES: OC(COC1CCC2(CCC(CCc3ccoc3)CC2)CC1)CN1CCCC1 (stereo not shown) [Comp. I-t, 9-(3-(N-Pyrrolidinyl)-2-hydroxypropoxy)-3-(2-(3-furyl)ethyl)-spiro[5.5]undecane]
- IC50 [1]: 100 µM
- IC50 [2]: 50.1 µM
